Assay results taken from ChEMBL document CHEMBL4739711, “Method of inhibiting DYRK1B” (2020).
The source made the active and inactive calls. No cut-off for these calls is given here.

Legend:
[1] = target: T1, Zinc finger protein GLI1 (Homo sapiens) (UniProt P08151); experiment: Inhibition of GLI in SAG stimulated human Daoy cells assessed as prevention of Hedgehog signaling by measuring reduction of GLI expression at 20 uM in presence of siRNA for SUFU by Western blot analysis; type: tissue-based
T1 sequence (whole entry): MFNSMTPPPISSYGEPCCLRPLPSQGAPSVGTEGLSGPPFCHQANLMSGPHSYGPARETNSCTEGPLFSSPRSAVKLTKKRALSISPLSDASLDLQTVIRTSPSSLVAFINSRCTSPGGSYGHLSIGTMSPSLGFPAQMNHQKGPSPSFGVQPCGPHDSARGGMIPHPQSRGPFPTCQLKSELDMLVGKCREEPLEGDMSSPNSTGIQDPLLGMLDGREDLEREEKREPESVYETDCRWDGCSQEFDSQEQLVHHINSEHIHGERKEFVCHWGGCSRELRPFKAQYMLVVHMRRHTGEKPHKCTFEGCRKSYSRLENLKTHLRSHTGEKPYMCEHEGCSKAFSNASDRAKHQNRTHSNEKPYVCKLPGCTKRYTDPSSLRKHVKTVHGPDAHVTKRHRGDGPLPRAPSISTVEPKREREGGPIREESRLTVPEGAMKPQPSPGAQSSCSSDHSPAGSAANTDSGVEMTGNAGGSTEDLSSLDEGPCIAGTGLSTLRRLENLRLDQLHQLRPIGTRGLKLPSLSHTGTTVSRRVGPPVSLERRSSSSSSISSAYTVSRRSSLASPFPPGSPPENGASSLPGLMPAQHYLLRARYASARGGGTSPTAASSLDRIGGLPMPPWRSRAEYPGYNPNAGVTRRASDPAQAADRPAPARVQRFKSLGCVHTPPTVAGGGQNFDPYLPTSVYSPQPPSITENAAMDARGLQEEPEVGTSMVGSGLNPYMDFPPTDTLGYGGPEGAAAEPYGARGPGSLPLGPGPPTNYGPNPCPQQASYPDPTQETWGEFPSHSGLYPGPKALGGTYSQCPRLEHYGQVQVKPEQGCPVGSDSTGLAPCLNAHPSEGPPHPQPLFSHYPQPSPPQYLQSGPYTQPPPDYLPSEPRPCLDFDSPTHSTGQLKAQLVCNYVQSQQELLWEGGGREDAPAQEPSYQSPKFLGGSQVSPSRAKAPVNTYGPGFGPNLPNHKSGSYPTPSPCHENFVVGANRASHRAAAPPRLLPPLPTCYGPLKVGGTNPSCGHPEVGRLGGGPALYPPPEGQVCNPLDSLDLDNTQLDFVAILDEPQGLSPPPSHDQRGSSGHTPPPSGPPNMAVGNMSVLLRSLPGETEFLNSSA

[2] = target: T1, Zinc finger protein GLI1 (Homo sapiens); experiment: Inhibition of GLI in SAG stimulated human Daoy cells assessed as prevention of Hedgehog signaling by measuring reduction of PTCH1 expression at 20 uM in presence of siRNA for SUFU by Western blot analysis; type: tissue-based
PANC-1 [3] = experiment: Inhibition of colony formation in human PANC-1 cells at 0.5 uM; type: functional, cell-based
PANC-1 [4] = experiment: Toxicity in human PANC-1 cells assessed as effect on cell viability at 0.5 uM; type: cell-based; conditions: panc-1, 0.5 µM
[5] = target: Dual specificity tyrosine-phosphorylation-regulated kinase 1B (Homo sapiens) (UniProt Q9Y463); experiment: Inhibition of DYRK1B in SAG stimulated human Daoy cells assessed as prevention of Hedgehog signaling by measuring reduction of GLI expression at 10 to 25 uM by Western blot analysis; type: tissue-based; conditions: dose 10-25 µM
Chain of Dual specificity tyrosine-phosphorylation-regulated kinase 1B (Homo sapiens) (Q9Y463 whole entry, looked up): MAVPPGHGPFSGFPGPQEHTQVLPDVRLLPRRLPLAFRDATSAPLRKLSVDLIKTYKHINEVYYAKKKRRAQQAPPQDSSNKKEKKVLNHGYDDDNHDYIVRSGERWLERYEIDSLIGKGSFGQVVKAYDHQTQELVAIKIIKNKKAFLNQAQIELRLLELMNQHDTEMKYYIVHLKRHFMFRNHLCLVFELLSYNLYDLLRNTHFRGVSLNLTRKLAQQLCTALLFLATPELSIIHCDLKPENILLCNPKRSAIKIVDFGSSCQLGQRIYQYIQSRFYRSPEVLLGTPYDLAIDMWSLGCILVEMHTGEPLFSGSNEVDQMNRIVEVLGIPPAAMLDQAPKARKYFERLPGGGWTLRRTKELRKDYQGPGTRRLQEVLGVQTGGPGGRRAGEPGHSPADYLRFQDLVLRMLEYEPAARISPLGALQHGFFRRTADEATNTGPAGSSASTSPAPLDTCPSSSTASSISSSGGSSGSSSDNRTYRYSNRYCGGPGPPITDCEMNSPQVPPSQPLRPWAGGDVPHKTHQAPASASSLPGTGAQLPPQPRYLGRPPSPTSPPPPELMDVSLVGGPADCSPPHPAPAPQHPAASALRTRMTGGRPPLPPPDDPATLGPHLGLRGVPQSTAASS

[6] = target: Dual specificity tyrosine-phosphorylation-regulated kinase 1B (Homo sapiens) (UniProt Q9Y463); experiment: Inhibition of DYRK1B in SAG stimulated human Daoy cells assessed as prevention of Hedgehog signaling by measuring reduction of PTCH1 expression at 10 to 25 uM by Western blot analysis; type: tissue-based; conditions: dose 10-25 µM
[7] = target: Protein smoothened (Mus musculus) (UniProt P56726); experiment: Inhibition of SMO in SAG stimulated mouse BCC cells assessed as prevention of Hedgehog signaling by measuring reduction of GLI expression at 10 to 25 uM by Western blot analysis; type: cell-based; conditions: dose 10-25 µM
Chain of Protein smoothened (Mus musculus) (P56726 whole entry): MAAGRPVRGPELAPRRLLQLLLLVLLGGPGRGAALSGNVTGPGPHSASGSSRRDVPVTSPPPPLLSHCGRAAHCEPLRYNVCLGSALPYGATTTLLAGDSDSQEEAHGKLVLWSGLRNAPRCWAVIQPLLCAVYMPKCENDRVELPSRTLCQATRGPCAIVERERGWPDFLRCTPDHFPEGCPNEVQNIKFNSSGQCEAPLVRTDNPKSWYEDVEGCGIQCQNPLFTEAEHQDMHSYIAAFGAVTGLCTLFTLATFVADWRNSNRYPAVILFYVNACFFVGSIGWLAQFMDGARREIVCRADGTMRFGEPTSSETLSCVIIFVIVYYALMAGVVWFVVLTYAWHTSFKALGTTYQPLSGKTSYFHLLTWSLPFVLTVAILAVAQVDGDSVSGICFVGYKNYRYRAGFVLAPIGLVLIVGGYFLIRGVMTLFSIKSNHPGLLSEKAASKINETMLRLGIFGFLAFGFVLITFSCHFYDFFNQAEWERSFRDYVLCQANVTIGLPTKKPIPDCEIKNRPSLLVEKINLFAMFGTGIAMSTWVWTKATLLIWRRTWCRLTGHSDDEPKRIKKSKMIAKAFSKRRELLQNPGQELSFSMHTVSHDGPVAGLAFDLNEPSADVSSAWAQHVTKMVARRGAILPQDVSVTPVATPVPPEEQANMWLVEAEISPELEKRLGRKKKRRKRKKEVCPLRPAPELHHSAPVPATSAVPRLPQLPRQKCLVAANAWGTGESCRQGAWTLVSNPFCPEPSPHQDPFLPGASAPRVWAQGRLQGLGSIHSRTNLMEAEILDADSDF

[8] = target: Dual specificity tyrosine-phosphorylation-regulated kinase 1B (Homo sapiens) (UniProt Q9Y463); experiment: Inhibition of DYRK1B in human A673 cells assessed as prevention of Hedgehog signaling by measuring reduction of GLI expression at 10 to 25 uM by Western blot analysis; type: cell-based; conditions: dose 10-25 µM
[9] = target: Dual specificity tyrosine-phosphorylation-regulated kinase 1B (Homo sapiens) (UniProt Q9Y463); experiment: Inhibition of DYRK1B in human PANC-1 cell assessed as prevention of Hedgehog signaling by measuring reduction of GLI expression at 10 to 25 uM by Western blot analysis; type: tissue-based; conditions: dose 10-25 µM
PANC-1 [10] = experiment: Inhibition of colony formation in human PANC-1 cells at 10 to 25 uM; type: functional, cell-based; conditions: dose 10-25 µM
PANC-1 [11] = experiment: Toxicity in human PANC-1 cells assessed as effect on cell viability at 10 to 25 uM; type: cell-based; conditions: panc-1, 25 µM, dose 10-25 µM
[12] = target: Dual specificity tyrosine-phosphorylation-regulated kinase 1B (Homo sapiens) (UniProt Q9Y463); experiment: Inhibition of DYRK1B in SAG stimulated human Daoy cells assessed as prevention of Hedgehog signaling by measuring reduction of GLI expression at 1 to 5 uM by Western blot analysis; type: tissue-based; conditions: dose 1-5 µM

Question: `CN(C)c1ccccc1CN1CCCN(Cc2ccccc2N(C)C)C1c1ccncc1` was tested. Which inhibition [1] did it give?
Answer: Its inhibition is “Active”.

Question: And the inhibition [2]?
Answer: Its inhibition is “Active”.

Question: `CS(=O)(=O)c1ccc(C(=O)Nc2ccc(Cl)c(-c3ccccn3)c2)c(Cl)c1` [VISMODEGIB] was tested. Which inhibition (PANC-1 [3]) did it give?
Answer: The inhibition was “inactive”.

Question: What about the Activity (PANC-1 [4]) of the same molecule?
Answer: Its Activity is “Non-Toxic”.

Question: Which results are given for `COc1ccc2c(c1)[nH]c1c(C)nccc12` [HARMINE]?
Answer: inhibition [5]: Active; inhibition [6]: Active; inhibition [7]: Active; inhibition [8]: Active; inhibition [9]: Active; inhibition (PANC-1 [10]): Active; Activity (PANC-1 [11]): Non-Toxic

Question: How did the inhibition [12] turn out when `FC(F)(F)c1ccc2[nH]c(Nc3ncccn3)nc2c1` was run?
Answer: The inhibition was “Active”.
